Consider two molecules from patent US10282514B2, “Method of constructing a data architecture” (The Procter & Gamble Company, priority 2012, dated 2019).

The subject of assay [1] is tert-Keratinocyte (tKC) cell line. The assay can be described thus: C-map query with the tone composite benchmark signature. The note with it: composite signature of Niacinamide, Sepiwhite, NAG, Hexamidine. Format: cell-based, human. How it is done:
(§1) Individual experiments (referred to as batches) generally comprise 30 to 96 samples analyzed using Affymetrix GeneChip® technology platforms, containing 6 replicates of the vehicle control (e.g., DSMO), 2 replicate samples of a positive control that gives a strong reproducible effect in the cell type used, and samples of the test material/perturbagen. Replication of the test material is done in separate batches due to batch effects. In vitro testing was performed in 6-well plates to provide sufficient RNA for GeneChip® analysis (2-4 μg total RNA yield/well).
Human telomerized keratinocytes (tKC) were obtained from the University of Texas, Southwestern Medical Center, Dallas, Tex. tKC cells were grown in EpiLife® media with 1× Human Keratinocyte Growth Supplement (Invitrogen, Carlsbad, Calif.) on collagen I coated cell culture flasks and plates (Becton Dickinson, Franklin Lakes, N.J.). Keratinocytes were seeded into 6-well plates at 20,000 cells/cm^2 24 hours before chemical exposure. Human skin fibroblasts (BJ cell line from ATCC, Manassas, Va.) were grown in Eagle's Minimal Essential Medium (ATCC) supplemented with 10% fetal bovine serum (HyClone, Logan, Utah) in normal cell culture flasks and plates (Corning, Lowell, Mass.). BJ fibroblasts were seeded into 6-well plates at 12,000 cells/cm^2 24 hours before chemical exposure. […]

Another assay deals with hyperpigmented spots. Description: 9-week randomized, double-blind, vehicle-controlled, split-face tone benefit study. The note with it: 0.05% in SC-99 vehicle, compared to vehicle. Format: in vivo, human. An excerpt:
This Example provides evidence of the advantages of using composite signatures and illustrates clinical affirmation of the C-map model for predicting efficacy of skin-lightening agents. This Example supports embodiments related to composite signatures (as described at the end of Example 3). An illustrative “Skin Tone” Signature developed from a genomics study using a composite skin-lightening benchmark agent signature is derived from Niacinamide, Hexamidine, Sepiwhite, and NAG. The signature is used to query C-map and generate a list of potential skin-lightening agents. A top hit, Chlorhexidine Diactate (CD) is entered into clinical testing for confirmation of efficacy. The control for clinical efficacy is a 5% Niacinamide+1% Sepiwhite formulation in the control vehicle.
Primary endpoints are changes in color spot area fraction (image analysis) and melanin spot area fraction (NC2) from baseline. Secondary endpoints are changes from baseline in L*a*b (color image analysis), mean melanin gray scale (NC2), and melanin evenness (NC2). Texture area fraction and pore area fraction are also evaluated to explore impact on other aspects relating to overall skin tone. […] Statistically significant superiority to the high efficacy benchmark skin active agent to vehicle performance is the clinical success criteria.
Study Design: The experimental protocol included a 9-week (1-week preconditioning & 8-week treatment), randomized, double-blind, round robin, vehicle-controlled, split-face tone benefit study. The subject population included 330 Chinese females, 25-55 years old with hyperpigmented spots. 318 subjects completed the entire study. […] Olay Complete SPF 15 UV Moisturizing Lotion is concomitantly used during pre-conditioning and treatment. 0.5 g each test product per half-face (forehead to jaw line; ˜4 mg/cm^2) is dosed 2× a day (morning/evening). Color SAF and treatment area, Melanin SAF, gray scale, evenness by NC2, and additional measurement of Fine Lines and Wrinkle and Texture are by REAL 3.01A. Data collection points include baseline, and ends of weeks 4, 6 and 8. […]

The test system of assay [2] is teleomerized human keratinocytes (tKC). The assay can be described thus: C-map query with the Retinoic Acid/Keratinocyte 200 benchmark signature. Type of assay: cell-based. Particulars: Retinoic Acid Keratinocyte RA_200 signature. As to the method:
as §1
Human telomerized keratinocytes (tKC) were obtained from the University of Texas, Southwestern Medical Center, Dallas, Tex. tKC cells were grown in EpiLife® media with 1× Human Keratinocyte Growth Supplement (Invitrogen, Carlsbad, Calif.) on collagen I coated cell culture flasks and plates (Becton Dickinson, Franklin Lakes, N.J.). Keratinocytes were seeded into 6-well plates at 20,000 cells/cm^2 24 hours before chemical exposure. […]
(a) Tert-keratinocytes (tKC) RA Signatures. […] Cells were treated with 1 uM tRA for 6 hr, tested in triplicate, with triplicate DMSO controls, and analyzed on HG-U133A GeneChips. […]

Take `CC(=O)O.CC(=O)O.NC(=N\CCCCCC/N=C(N)/N=C(\N)Nc1ccc(Cl)cc1)/N=C(\N)Nc1ccc(Cl)cc1` [CD, Chlorhexidine Diacetate]: the “connectivity to tone composite benchmark signature query” value in assay [1] was “top connectivity hit”. In addition, in the assay with hyperpigmented spots (week 8), the Basal skin tone result is “superiority”. In addition, the “NC2 Melanin evenness test” value with hyperpigmented spots (weeks 6 and 8) is reported as “superiority to the vehicle”. In addition, the “spot area fraction color test” value in the assay on hyperpigmented spots (topical 2x a day, week 8) is listed as “significantly fewer spots”.

Consider `CC1=C(/C=C/C(C)=C/C=C/C(C)=C/C(=O)O)C(C)(C)CCC1` [Retinoic acid, all-trans-retinoic acid], for which the “average C-map score” value in assay [2] was “highest score”.
